Data reported in US9695155B2, “Herbicidal substituted pyrimidinyloxy benzene compounds” (E. I. DU PONT DE NEMOURS AND COMPANY, priority 2013, dated 2017).

Experiments:
Assay in all cases: Test C preemergence
johnsongrass = format: in vivo, Sorghum halepense; conditions: for Johnsongrass plant response rating: preemergence; for Plant response rating, Johnsongrass: Preemergence, scale 0 to 100, 0 no effect, 100 complete control
Procedure, shortened: (§1)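 Visual injury score versus untreated controls, 0 = no effect, 100 = complete control, taken 13 to 15 days after treatment in the greenhouse. Pre-emergence pots held loam/sand; post-emergence plants grew in sphagnum peat/vermiculite mix and were sprayed at the 1- to 4-leaf stage.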

corn = format: in vivo, Zea mays; conditions: for Corn plant response rating: preemergence; for Plant response rating, Corn: Preemergence, scale 0 to 100, 0 no effect, 100 complete control
Procedure, shortened: as §1

velvetleaf = format: in vivo, Abutilon theophrasti; conditions: for Velvetleaf plant response rating: preemergence; for Plant response rating, Velvetleaf: Preemergence, scale 0 to 100, 0 no effect, 100 complete control
Procedure, shortened: as §1

barnyardgrass = format: in vivo, Echinochloa crus-galli; conditions: for Barnyardgrass plant response rating: preemergence; for Plant response rating, Barnyardgrass: Preemergence, scale 0 to 100, 0 no effect, 100 complete control
Procedure, shortened: as §1

galium = format: in vivo, Galium aparine; conditions: for Galium plant response rating: preemergence; for Plant response rating, Galium: Preemergence, scale 0 to 100, 0 no effect, 100 complete control
Procedure, shortened: as §1

soybean = format: in vivo, Glycine max; conditions: for Soybean plant response rating: preemergence; for Plant response rating, Soybean: Preemergence, scale 0 to 100, 0 no effect, 100 complete control
Procedure, shortened: as §1

Italian ryegrass = format: in vivo, Lolium multiflorum; conditions: for Ryegrass, Italian plant response rating: preemergence; for Plant response rating, Ryegrass, Italian: Preemergence, scale 0 to 100, 0 no effect, 100 complete control
Procedure, shortened: as §1

giant foxtail = format: in vivo, Setaria faberii; conditions: for Foxtail, Giant plant response rating: preemergence; for Plant response rating, Foxtail, Giant: Preemergence, scale 0 to 100, 0 no effect, 100 complete control
Procedure, shortened: as §1

morningglory = format: in vivo, Ipomoea coccinea; conditions: for Morningglory plant response rating: preemergence; for Plant response rating, Morningglory: Preemergence, scale 0 to 100, 0 no effect, 100 complete control
Procedure, shortened: as §1

wheat, winter = format: in vivo, Triticum aestivum; conditions: for Wheat plant response rating: preemergence; for Plant response rating, Wheat: Preemergence, scale 0 to 100, 0 no effect, 100 complete control
Procedure, shortened: as §1

oilseed rape = format: in vivo, Brassica napus; conditions: for Oilseed Rape plant response rating: preemergence; for Plant response rating, Oilseed Rape: Preemergence, scale 0 to 100, 0 no effect, 100 complete control
Procedure, shortened: as §1

blackgrass = format: in vivo, Alopecurus myosuroides; conditions: for Blackgrass plant response rating: preemergence; for Plant response rating, Blackgrass: Preemergence, scale 0 to 100, 0 no effect, 100 complete control
Procedure, shortened: as §1

ragweed = format: in vivo, Ambrosia elatior; conditions: for Ragweed plant response rating: preemergence; for Plant response rating, Ragweed: Preemergence, scale 0 to 100, 0 no effect, 100 complete control
Procedure, shortened: as §1

lambsquarters = format: in vivo, Chenopodium album; conditions: for Lambsquarters plant response rating: preemergence; for Plant response rating, Lambsquarters: Preemergence, scale 0 to 100, 0 no effect, 100 complete control
Procedure, shortened: as §1

[1] = 16 g ai/ha, scale 0 to 100 (0 no effect, 100 complete control)
[2] = 31 g ai/ha, scale 0 to 100 (0 no effect, 100 complete control)
[3] = 125 g ai/ha, scale 0 (no effect) to 100 (complete control)
[4] = 62 g ai/ha, scale 0 (no effect) to 100 (complete control)
[5] = 250 g ai/ha, scale 0 (no effect) to 100 (complete control)

## NC(=S)c1cccc(Oc2ncc(Cl)cn2)c1-n1cc(Cl)cn1 [Compound 292]
johnsongrass; [1]
  Johnsongrass plant response rating: 0
johnsongrass; [2]
  Johnsongrass plant response rating: 5
johnsongrass; [3]
  Johnsongrass plant response rating: 85
johnsongrass; 62 g ai/ha
  Plant response rating, Johnsongrass: 40
corn; [1]
  Corn plant response rating: 0
corn; [2]
  Corn plant response rating: 5
corn; [3]
  Corn plant response rating: 45
corn; 62 g ai/ha
  Plant response rating, Corn: 10
velvetleaf; [1]
  Velvetleaf plant response rating: 15
velvetleaf; [2]
  Velvetleaf plant response rating: 35
velvetleaf; [3]
  Velvetleaf plant response rating: 100
velvetleaf; 62 g ai/ha
  Plant response rating, Velvetleaf: 98
barnyardgrass; [1]
  Barnyardgrass plant response rating: 0
barnyardgrass; [2]
  Barnyardgrass plant response rating: 15
barnyardgrass; [3]
  Barnyardgrass plant response rating: 100
barnyardgrass; 62 g ai/ha
  Plant response rating, Barnyardgrass: 85
galium; [1]
  Galium plant response rating: 80
galium; [2]
  Galium plant response rating: 98
galium; [3]
  Galium plant response rating: 100
galium; 62 g ai/ha
  Plant response rating, Galium: 100
soybean; [1]
  Soybean plant response rating: 5
soybean; [2]
  Soybean plant response rating: 40
soybean; [3]
  Soybean plant response rating: 90
soybean; 62 g ai/ha
  Plant response rating, Soybean: 85
Italian ryegrass; [1]
  Ryegrass, Italian plant response rating: 0
Italian ryegrass; [2]
  Ryegrass, Italian plant response rating: 0
Italian ryegrass; [3]
  Ryegrass, Italian plant response rating: 85
Italian ryegrass; 62 g ai/ha
  Plant response rating, Ryegrass, Italian: 10
Giant foxtail; [1]
  Foxtail, Giant plant response rating: 45
Giant foxtail; [2]
  Foxtail, Giant plant response rating: 100
Giant foxtail; [3]
  Foxtail, Giant plant response rating: 100
Giant foxtail; 62 g ai/ha
  Plant response rating, Foxtail, Giant: 100
morningglory; [1]
  Morningglory plant response rating: 25
morningglory; [2]
  Morningglory plant response rating: 30
morningglory; [3]
  Morningglory plant response rating: 70
morningglory; 62 g ai/ha
  Plant response rating, Morningglory: 35
wheat, winter; [1]
  Wheat plant response rating: 0
wheat, winter; [2]
  Wheat plant response rating: 0
wheat, winter; [3]
  Wheat plant response rating: 15
wheat, winter; 62 g ai/ha
  Plant response rating, Wheat: 10
Oilseed rape; [1]
  Oilseed Rape plant response rating: 70
Oilseed rape; [2]
  Oilseed Rape plant response rating: 80
Oilseed rape; [3]
  Oilseed Rape plant response rating: 98
Oilseed rape; 62 g ai/ha
  Plant response rating, Oilseed Rape: 98
blackgrass; [1]
  Blackgrass plant response rating: 0
blackgrass; [2]
  Blackgrass plant response rating: 70
blackgrass; [3]
  Blackgrass plant response rating: 90
blackgrass; 62 g ai/ha
  Plant response rating, Blackgrass: 90
ragweed; [1]
  Ragweed plant response rating: 25
ragweed; [2]
  Ragweed plant response rating: 35
ragweed; [3]
  Ragweed plant response rating: 70
ragweed; 62 g ai/ha
  Plant response rating, Ragweed: 35
lambsquarters; [1]
  Lambsquarters plant response rating: 35
lambsquarters; [2]
  Lambsquarters plant response rating: 80
lambsquarters; [3]
  Lambsquarters plant response rating: 100
lambsquarters; 62 g ai/ha
  Plant response rating, Lambsquarters: 98

## N#Cc1cccc(Oc2ncc(Cl)cn2)c1-n1cc(Cl)cn1 [Compound 72]
johnsongrass; [4]
  Johnsongrass plant response rating: 55
johnsongrass; [3]
  Johnsongrass plant response rating: 100
johnsongrass; [5]
  Johnsongrass plant response rating: 100
johnsongrass; 31 g ai/ha
  Plant response rating, Johnsongrass: 35
corn; [4]
  Corn plant response rating: 25
corn; [3]
  Corn plant response rating: 65
corn; [5]
  Corn plant response rating: 65
velvetleaf; [4]
  Velvetleaf plant response rating: 95
velvetleaf; [3]
  Velvetleaf plant response rating: 100
velvetleaf; [5]
  Velvetleaf plant response rating: 100
velvetleaf; 31 g ai/ha
  Plant response rating, Velvetleaf: 60
barnyardgrass; [4]
  Barnyardgrass plant response rating: 100
barnyardgrass; [3]
  Barnyardgrass plant response rating: 100
barnyardgrass; [5]
  Barnyardgrass plant response rating: 100
barnyardgrass; 31 g ai/ha
  Plant response rating, Barnyardgrass: 75
galium; [4]
  Galium plant response rating: 90
galium; [3]
  Galium plant response rating: 90
galium; [5]
  Galium plant response rating: 95
galium; 31 g ai/ha
  Plant response rating, Galium: 80
soybean; [4]
  Soybean plant response rating: 55
soybean; [3]
  Soybean plant response rating: 80
soybean; [5]
  Soybean plant response rating: 85
soybean; 31 g ai/ha
  Plant response rating, Soybean: 40
Italian ryegrass; [4]
  Ryegrass, Italian plant response rating: 10
Italian ryegrass; [3]
  Ryegrass, Italian plant response rating: 40
Italian ryegrass; [5]
  Ryegrass, Italian plant response rating: 80
Italian ryegrass; 31 g ai/ha
  Plant response rating, Ryegrass, Italian: 5
Giant foxtail; [4]
  Foxtail, Giant plant response rating: 100
Giant foxtail; [3]
  Foxtail, Giant plant response rating: 100
Giant foxtail; [5]
  Foxtail, Giant plant response rating: 100
Giant foxtail; 31 g ai/ha
  Plant response rating, Foxtail, Giant: 100
morningglory; [4]
  Morningglory plant response rating: 85
morningglory; [3]
  Morningglory plant response rating: 100
morningglory; [5]
  Morningglory plant response rating: 100
morningglory; 31 g ai/ha
  Plant response rating, Morningglory: 15
wheat, winter; [4]
  Wheat plant response rating: 0
wheat, winter; [3]
  Wheat plant response rating: 30
wheat, winter; [5]
  Wheat plant response rating: 35
wheat, winter; 31 g ai/ha
  Plant response rating, Wheat: 0
Oilseed rape; [4]
  Oilseed Rape plant response rating: 100
Oilseed rape; [3]
  Oilseed Rape plant response rating: 100
Oilseed rape; [5]
  Oilseed Rape plant response rating: 100
Oilseed rape; 31 g ai/ha
  Plant response rating, Oilseed Rape: 65
blackgrass; [4]
  Blackgrass plant response rating: 90
blackgrass; [3]
  Blackgrass plant response rating: 90
blackgrass; [5]
  Blackgrass plant response rating: 95
blackgrass; 31 g ai/ha
  Plant response rating, Blackgrass: 50
ragweed; [4]
  Ragweed plant response rating: 75
ragweed; [3]
  Ragweed plant response rating: 85
ragweed; [5]
  Ragweed plant response rating: 95
ragweed; 31 g ai/ha
  Plant response rating, Ragweed: 55
lambsquarters; [4]
  Lambsquarters plant response rating: 100
lambsquarters; [3]
  Lambsquarters plant response rating: 100
lambsquarters; [5]
  Lambsquarters plant response rating: 100
lambsquarters; 31 g ai/ha
  Plant response rating, Lambsquarters: 98

## N#Cc1cccc(Oc2ncc(Cl)cn2)c1-n1cc(OC(F)F)cn1 [Compound 97]
johnsongrass; [1]
  Johnsongrass plant response rating: 10
johnsongrass; [4]
  Johnsongrass plant response rating: 90
johnsongrass; [3]
  Johnsongrass plant response rating: 90
johnsongrass; 31 g ai/ha
  Plant response rating, Johnsongrass: 40
corn; [1]
  Corn plant response rating: 0
corn; [4]
  Corn plant response rating: 45
corn; [3]
  Corn plant response rating: 80
corn; 31 g ai/ha
  Plant response rating, Corn: 5
velvetleaf; [1]
  Velvetleaf plant response rating: 40
velvetleaf; [4]
  Velvetleaf plant response rating: 100
velvetleaf; [3]
  Velvetleaf plant response rating: 100
velvetleaf; 31 g ai/ha
  Plant response rating, Velvetleaf: 95
barnyardgrass; [1]
  Barnyardgrass plant response rating: 35
barnyardgrass; [4]
  Barnyardgrass plant response rating: 100
barnyardgrass; [3]
  Barnyardgrass plant response rating: 100
barnyardgrass; 31 g ai/ha
  Plant response rating, Barnyardgrass: 95
galium; [1]
  Galium plant response rating: 85
galium; [4]
  Galium plant response rating: 98
galium; [3]
  Galium plant response rating: 95
galium; 31 g ai/ha
  Plant response rating, Galium: 90
soybean; [1]
  Soybean plant response rating: 50
soybean; [4]
  Soybean plant response rating: 95
soybean; [3]
  Soybean plant response rating: 98
soybean; 31 g ai/ha
  Plant response rating, Soybean: 90
Italian ryegrass; [1]
  Ryegrass, Italian plant response rating: 0
Italian ryegrass; [4]
  Ryegrass, Italian plant response rating: 85
Italian ryegrass; [3]
  Ryegrass, Italian plant response rating: 90
Italian ryegrass; 31 g ai/ha
  Plant response rating, Ryegrass, Italian: 60
Giant foxtail; [1]
  Foxtail, Giant plant response rating: 60
Giant foxtail; [4]
  Foxtail, Giant plant response rating: 100
Giant foxtail; [3]
  Foxtail, Giant plant response rating: 100
Giant foxtail; 31 g ai/ha
  Plant response rating, Foxtail, Giant: 100
morningglory; [1]
  Morningglory plant response rating: 40
morningglory; [4]
  Morningglory plant response rating: 100
morningglory; [3]
  Morningglory plant response rating: 100
morningglory; 31 g ai/ha
  Plant response rating, Morningglory: 98
wheat, winter; [1]
  Wheat plant response rating: 0
wheat, winter; [4]
  Wheat plant response rating: 60
wheat, winter; [3]
  Wheat plant response rating: 90
wheat, winter; 31 g ai/ha
  Plant response rating, Wheat: 10
Oilseed rape; [1]
  Oilseed Rape plant response rating: 85
Oilseed rape; [4]
  Oilseed Rape plant response rating: 98
Oilseed rape; [3]
  Oilseed Rape plant response rating: 90
Oilseed rape; 31 g ai/ha
  Plant response rating, Oilseed Rape: 85
blackgrass; [1]
  Blackgrass plant response rating: 0
blackgrass; [4]
  Blackgrass plant response rating: 90
blackgrass; [3]
  Blackgrass plant response rating: 90
blackgrass; 31 g ai/ha
  Plant response rating, Blackgrass: 70
ragweed; [1]
  Ragweed plant response rating: 35
ragweed; [4]
  Ragweed plant response rating: 85
ragweed; [3]
  Ragweed plant response rating: 100
ragweed; 31 g ai/ha
  Plant response rating, Ragweed: 35
lambsquarters; [1]
  Lambsquarters plant response rating: 95
lambsquarters; [4]
  Lambsquarters plant response rating: 100
lambsquarters; [3]
  Lambsquarters plant response rating: 98
lambsquarters; 31 g ai/ha
  Plant response rating, Lambsquarters: 98
